pIC50: −log10 of the molar value.

In this experiment the target is T1, PI3Kγ (p101/p110γ protein) (Homo sapiens, UniProt P48736).
T1 construct: HA; made in house; host or cells: Spodoptera frugiperda (Sf9) cells, baculovirus co-infection
T1 sequence (P48736 whole entry, species assumed): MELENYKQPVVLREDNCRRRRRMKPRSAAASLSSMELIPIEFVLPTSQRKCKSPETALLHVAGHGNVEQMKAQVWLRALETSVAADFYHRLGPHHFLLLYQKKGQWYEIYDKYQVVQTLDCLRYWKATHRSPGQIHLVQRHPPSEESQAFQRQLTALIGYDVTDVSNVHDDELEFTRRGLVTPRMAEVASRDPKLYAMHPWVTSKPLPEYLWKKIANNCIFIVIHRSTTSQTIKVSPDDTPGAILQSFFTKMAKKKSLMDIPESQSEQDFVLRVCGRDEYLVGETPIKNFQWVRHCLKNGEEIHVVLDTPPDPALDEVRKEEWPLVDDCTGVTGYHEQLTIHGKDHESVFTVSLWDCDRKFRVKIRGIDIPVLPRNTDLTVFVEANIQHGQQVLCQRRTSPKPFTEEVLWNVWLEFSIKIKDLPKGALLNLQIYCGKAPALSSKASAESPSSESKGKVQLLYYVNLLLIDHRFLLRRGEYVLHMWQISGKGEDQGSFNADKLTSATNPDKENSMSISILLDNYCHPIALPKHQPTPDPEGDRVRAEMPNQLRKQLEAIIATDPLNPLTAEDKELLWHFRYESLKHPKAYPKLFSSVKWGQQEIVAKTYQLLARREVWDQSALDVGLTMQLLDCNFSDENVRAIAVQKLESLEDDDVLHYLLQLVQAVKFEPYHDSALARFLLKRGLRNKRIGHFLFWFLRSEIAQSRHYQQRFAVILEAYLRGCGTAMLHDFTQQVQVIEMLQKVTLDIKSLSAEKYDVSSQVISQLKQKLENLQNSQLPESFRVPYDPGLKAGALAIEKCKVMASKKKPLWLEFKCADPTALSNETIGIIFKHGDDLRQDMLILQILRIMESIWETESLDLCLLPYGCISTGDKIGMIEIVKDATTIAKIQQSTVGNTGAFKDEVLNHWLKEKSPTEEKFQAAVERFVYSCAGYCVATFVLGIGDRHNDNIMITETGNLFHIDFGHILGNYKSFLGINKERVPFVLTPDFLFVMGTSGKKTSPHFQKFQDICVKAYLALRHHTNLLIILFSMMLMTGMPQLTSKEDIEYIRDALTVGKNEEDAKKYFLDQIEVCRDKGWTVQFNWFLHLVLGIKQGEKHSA
T1 sequence (Q8WYR1 whole entry partner, species assumed): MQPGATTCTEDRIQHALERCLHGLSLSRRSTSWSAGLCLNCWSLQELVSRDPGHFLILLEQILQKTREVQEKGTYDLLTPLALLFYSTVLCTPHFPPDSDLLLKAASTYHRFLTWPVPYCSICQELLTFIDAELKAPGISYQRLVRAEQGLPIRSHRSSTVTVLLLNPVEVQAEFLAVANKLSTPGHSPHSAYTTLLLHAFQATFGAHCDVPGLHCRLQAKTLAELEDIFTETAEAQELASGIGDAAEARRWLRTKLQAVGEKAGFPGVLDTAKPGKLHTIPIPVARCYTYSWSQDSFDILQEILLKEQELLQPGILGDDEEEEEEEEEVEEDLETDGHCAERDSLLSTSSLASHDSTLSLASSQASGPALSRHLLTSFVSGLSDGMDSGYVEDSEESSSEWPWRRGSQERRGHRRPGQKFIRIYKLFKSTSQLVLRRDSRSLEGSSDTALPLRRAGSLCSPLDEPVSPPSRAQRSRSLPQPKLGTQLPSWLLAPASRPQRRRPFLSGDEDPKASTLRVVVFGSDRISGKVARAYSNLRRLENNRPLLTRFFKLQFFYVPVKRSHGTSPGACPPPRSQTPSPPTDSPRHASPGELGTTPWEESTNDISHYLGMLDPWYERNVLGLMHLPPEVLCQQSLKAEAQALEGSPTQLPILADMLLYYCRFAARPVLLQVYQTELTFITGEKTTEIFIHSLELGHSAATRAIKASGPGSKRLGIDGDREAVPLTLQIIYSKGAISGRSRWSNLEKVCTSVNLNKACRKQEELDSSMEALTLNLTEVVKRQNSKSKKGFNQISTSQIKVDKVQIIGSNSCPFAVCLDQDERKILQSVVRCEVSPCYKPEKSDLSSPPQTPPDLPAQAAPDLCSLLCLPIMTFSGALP
The experiment can be described thus: PI3Kγ In Vitro Kinase Assay. It counts as biochemical. The conditions noted are these: purified recombinant p101/p110γ with G protein β1/γ2 subunits; 20 μM ATP, 25 μM PIP2; 20 minutes at room temperature. A digest of the protocol:
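Sf9-expressed, purified human p101/p110γ (2.7 nM) was activated by Gβ1/γ2 (57.7 nM) and reacted with 20 μM ATP plus [γ-32P]ATP on PIP2 (25 μM)/PE (300 μM) micelles with 10 mM MgCl2 in HEPES buffer. Reactions ran 20 min at room temperature. Filter-captured radiolabeled PIP3 was counted by scintillation.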
One may read the pIC50 as −log10 of the IC50, conventionally taken in molar units. `C/C(=C1/SC(=S)NC1=O)c1ccc2c(c1)NC(=O)CO2` [Example 268, 6-{1-[4-Oxo-2-thioxo-thiazolidin-(5Z)-ylidene]-ethyl}-4H-benzo[1,4]oxazin-3-one]: the pIC50 is 5.33. Regarding `CS(=O)(=O)c1cccc(CN2C(=O)COc3c(F)cc(C=C4SC(=S)NC4=O)cc32)c1` [Example 269, 8-Fluoro-4-(3-methanesulfonyl-benzyl)-6-(4-oxo-2-thioxo-thiazolidin-5-ylidenemethyl)-4H-benzo[1,4]oxazin-3-one], the pIC50 was 7.85.

Consider `CS(=O)(=O)c1cccc(CN2C(=O)COc3ccc(/C=C4\SC(=S)NC4=O)cc32)c1` [Example 270, 4-(3-Methanesulfonyl-benzyl)-6-[4-oxo-2-thioxo-thiazolidin-(5Z)-ylidenemethyl]-4H-benzo[1,4]oxazin-3-one], for which the pIC50 was 7.96. Next, `O=C1NC(=S)O/C1=C\c1ccc2c(c1)N(Cc1cc(C(F)(F)F)cc(C(F)(F)F)c1)C(=O)CO2` [Example 271, 4-(3,5-Bis-trifluoromethyl-benzyl)-6-[4-oxo-2-thioxo-oxazolidin-(5Z)-ylidenemethyl]-4H-benzo[1,4]oxazin-3-one]: 7.00. For the compound `O=C1NC(=O)/C(=C/c2ccc3c(c2)N(Cc2cc(C(F)(F)F)cc(C(F)(F)F)c2)C(=O)CO3)S1` [Example 272, 5-[1-[4-(3,5-Bis-trifluoromethyl-benzyl)-3-oxo-3,4-dihydro-2H-benzo[1,4]oxazin-6-yl]-meth-(Z)-ylidene]-thiazolidine-2,4-dione], the pIC50 was 7.15. With `O=C1NC(=S)S/C1=C\c1cc(F)c2c(c1)N(Cc1cc(C(F)(F)F)cc(C(F)(F)F)c1)C(=O)CO2` [Example 273, 4-(3,5-Bis-trifluoromethyl-benzyl)-8-fluoro-6-[4-oxo-2-thioxo-thiazolidin-(5Z)-ylidenemethyl]-4H-benzo[1,4]oxazin-3-one], the pIC50 is 6.92. `COCCOCOCc1cc(CN2C(=O)COc3ccc(/C=C4\SC(=S)NC4=O)cc32)cc(C(C)(C)C)c1` [Example 274, 4-[3-tert-Butyl-5-(2-methoxy-ethoxymethoxymethyl)-benzyl]-6-[4-oxo-2-thioxo-thiazolidin-(5Z)-ylidenemethyl]-4H-benzo[1,4]oxazin-3-one]: the pIC50 was 7.89. As to `CC(C)(C)c1cc(CN2C(=O)COc3ccc(C=C4SC(=S)NC4=O)cc32)cc(C(=O)N2CCOCC2)c1` [Example 275, 4-[3-tert-Butyl-5-(morpholine-4-carbonyl)-benzyl]-6-(4-oxo-2-thioxo-thiazolidin-5-ylidenemethyl)-4H-1,4-benzoxazin-3-one; compound with ethane-1,2-diamine], the pIC50 was 7.60.

Consider `CC(C)(C)c1cc(CN2C(=O)COc3c(F)cc(/C=C4\SC(=O)NC4=O)cc32)cc(C(C)(C)O)c1` [Example 276, 5-[1-{4-[3-tert-Butyl-5-(1-hydroxy-1-methyl-ethyl)-benzyl]-8-fluoro-3-oxo-3,4-dihydro-2H-benzo[1,4]oxazin-6-yl}-meth-(Z)-ylidene]-thiazolidine-2,4-dione], for which the pIC50 is 8.15.

Turning to `CC(C)(C)c1cc(CN2CCOCC2)cc(CN2C(=O)COc3ccc(/C=C4\SC(=O)NC4=O)cc32)c1` [Example 277, 5-[1-[4-(3-tert-Butyl-5-morpholin-4-ylmethyl-benzyl)-3-oxo-3,4-dihydro-2H-benzo[1,4]oxazin-6-yl]-meth-(Z)-ylidene]-thiazolidine-2,4-dione], the negative-log IC50 (pIC50) is 8.30.

Consider `CC(C)(C)c1cc(CN2CCOCC2)cc(CN2C(=O)COc3ccc(/C=C4\SC(=S)NC4=O)cc32)c1` [Example 278, 4-(3-tert-Butyl-5-morpholin-4-ylmethyl-benzyl)-6-[4-oxo-2-thioxo-thiazolidin-(5Z)-ylidenemethyl]-4H-benzo[1,4]oxazin-3-one], for which the pIC50 is 8.15.

As for `CN1CCN(C(=O)c2cc(CN3C(=O)COc4ccc(/C=C5\SC(=S)NC5=O)cc43)cc(C(C)(C)C)c2)CC1` [Example 279, 4-[3-tert-Butyl-5-(4-methyl-piperazine-1-carbonyl)-benzyl]-6-[4-oxo-2-thioxo-thiazolidin-(5Z)-ylidenemethyl]-4H-benzo[1,4]oxazin-3-one], the pIC50 is 7.80. Take `CN1CCN(C(=O)c2ccc(CN3C(=O)COc4ccc(/C=C5\SC(=S)NC5=O)cc43)cc2)CC1` [Example 280, 4-[4-(4-Methyl-piperazine-1-carbonyl)-benzyl]-6-[4-oxo-2-thioxo-thiazolidin-(5Z)-ylidenemethyl]-4H-benzo[1,4]oxazin-3-one]: the pIC50 is 8.10. With `O=C1NC(=S)S/C1=C\c1ccc2c(c1)N(Cc1ccc(C(=O)N3CCOCC3)cc1)C(=O)CO2` [Example 281, 4-[4-(Morpholine-4-carbonyl)-benzyl]-6-[4-oxo-2-thioxo-thiazolidin-(5Z)-ylidenemethyl]-4H-benzo[1,4]oxazin-3-one], the pIC50 was 8.10. For `CC(C)(O)c1cccc(CN2C(=O)COc3ccc(/C=C4\SC(=S)NC4=O)cc32)c1` [Example 282, 4-[3-(1-Hydroxy-1-methyl-ethyl)-benzyl]-6-[4-oxo-2-thioxo-thiazolidin-(5Z)-ylidenemethyl]-4H-benzo[1,4]oxazin-3-one; Compound with ethane-1,2-diamine], the pIC50 was 7.89.

Take `COC(C)(C)c1cc(CN2C(=O)COc3ccc(/C=C4\SC(=S)NC4=O)cc32)cc(C(C)(C)C)c1` [Example 283, 4-[3-tert-Butyl-5-(1-methoxy-1-methyl-ethyl)-benzyl]-6-[4-oxo-2-thioxo-thiazolidin-(5Z)-ylidenemethyl]-4H-benzo[1,4]oxazin-3-one]: the pIC50 is 7.96. As to `CC(C)(C)c1cc(CO)cc(CN2C(=O)COc3c(F)cc(/C=C4\SC(=S)NC4=O)cc32)c1` [Example 284, 4-(3-tert-Butyl-5-hydroxymethyl-benzyl)-8-fluoro-6-[4-oxo-2-thioxo-thiazolidin-(5Z)-ylidenemethyl]-4H-benzo[1,4]oxazin-3-one], the pIC50 is 8.00.

With `CC(=O)OCc1cc(CN2C(=O)COc3c(F)cc(/C=C4\SC(=S)NC4=O)cc32)cc(C(C)(C)C)c1` [Example 285, Acetic acid 3-tert-butyl-5-{8-fluoro-3-oxo-6-[4-oxo-2-thioxo-thiazolidin-(5Z)-ylidenemethyl]-2,3-dihydro-benzo[1,4]oxazin-4-ylmethyl}-benzyl ester], the pIC50 is 7.68. Turning to `O=C1NC(=S)S/C1=C\c1ccc2oc(=O)n(Cc3ccc(Cl)c(Cl)c3)c2c1` [Example 286, 3-(3,4-Dichloro-benzyl)-5-[4-oxo-2-thioxo-thiazolidin-(5Z)-ylidenemethyl]-3H-benzooxazol-2-one], the pIC50 was 6.66. For the compound `O=C1NC(=S)S/C1=C\c1ccc2c(c1)N(Cc1ccc(I)cc1)C(=O)CO2` [Example 287, 4-(4-Iodo-benzyl)-6-[4-oxo-2-thioxo-thiazolidin-(5Z)-ylidenemethyl]-4H-benzo[1,4]oxazin-3-one], the pIC50 was 7.80.

On to `O=C1NC(=S)S/C1=C\c1ccc2c(c1)N(Cc1ccc(C(=O)O)cc1)C(=O)CO2` [Example 288, 4-{3-oxo-6-[4-oxo-2-thioxo-thiazolidin-(5Z)-ylidenemethyl]-2,3-dihydro-benzo[1,4]oxazin-4-ylmethyl}-benzoic acid; Compound with ethane-1,2-diamine], for which the negative logarithm of the IC50 (pIC50) is 7.46.

As for `CS(=O)(=O)c1ccc(CN2C(=O)COc3c(F)cc(/C=C4\SC(=S)NC4=O)cc32)cc1` [Example 289, 8-Fluoro-4-(4-methanesulfonyl-benzyl)-6-[4-oxo-2-thioxo-thiazolidin-(5Z)-ylidenemethyl]-4H-benzo[1,4]oxazin-3-one; Compound with Ethane-1,2-diamine], the pIC50 is 8.00. For `O=C1NC(=S)S/C1=C\c1ccc2oc(=O)n(Cc3ccccc3)c2c1` [Example 290, 3-Benzyl-5-[4-oxo-2-thioxo-thiazolidin-(5Z)-ylidenemethyl]-3H-benzooxazol-2-one; Compound with Ethane-1,2-diamine], the pIC50 is 6.61. The figure for `CS(=O)(=O)c1ccc(Cn2c(=O)oc3ccc(C=C4SC(=S)NC4=O)cc32)cc1` [Example 291, 3-(4-Methanesulfonyl-benzyl)-5-(4-oxo-2-thioxo-thiazolidin-5-ylidenemethyl)-3H-benzoxazol-2-one; Compound with Ethane-1,2-diamine] is 6.36; for `O=C1NC(=S)SC1=Cc1cc(F)c2c(c1)N(Cc1ccc(F)c(C(F)(F)F)c1)C(=O)CO2` [Example 292, 8-Fluoro-4-(4-fluoro-3-trifluoromethyl-benzyl)-6-(4-oxo-2-thioxo-thiazolidin-5-ylidenemethyl)-4-H-benzo[1,4]oxazin-3-one] it is 7.96; for `CC(C)(O)c1cc(Cl)cc(CN2C(=O)COc3c(F)cc(C=C4SC(=S)NC4=O)cc32)c1` [Example 293, 4-[3-Chloro-5-(1-hydroxy-1-methyl-ethyl)-benzyl]-8-fluoro-6-(4-oxo-2-thioxo-thiazoldin-5-ylidenemethyl)-4H-benzo[1,4]oxazin-3-one; Compound with Ethane-1,2-diamine] it is 7.82. On to `CC(C)(O)c1ccc(CN2C(=O)COc3c(F)cc(C=C4SC(=S)NC4=O)cc32)cc1` [Example 294, 8-Fluoro-4-[4-(1-hydroxy-1-methyl-ethyl)-benzyl]-6-(4-oxo-2-thioxo-thiazolidin-5-ylidenemethyl)-4H-benzo[1,4]oxazin-3-one], for which the negative logarithm of the IC50 (pIC50) was 8.52.

On to `O=C1NC(=S)SC1=Cc1ccc2c(c1)N(Cc1cc(F)c(O)c(F)c1)C(=O)CO2` [Example 295, 4-(3,5-Difluoro-4-hydroxy-benzyl)-6-(4-oxo-2-thioxo-thiazolidin-5-ylidenemethyl)-4H-benzo[1,4]oxazin-3-one], for which the pIC50 was 8.40.

For the origin of these results see patent US7205295B2, “Benzoxazin-3-ones and derivatives thereof as therapeutic agents” (Warner-Lambert Company LLC, priority 2002, dated 2007).
